Test results published in PubChem BioAssay AID2060897 (Molecular Pharmacology Branch, DTP, NCI, 2025).
One block for each molecule: values may come before it.

System: 966289-007-R4-J1-PDC complex spheroid viability
Experiment: Anticancer human tumor 966289-007-R4-J1-PDC patient-derived pancreatic adenocarcinoma cell line growth inhibition [RAS]
Conditions: for IC50: curve of first compound; for viability, T/C: stronger effect = lower value
Outline: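 Agents were tested in combination matrices in half-log decrements from a top concentration at or near clinical Cmax (10 microM if undetermined). Targets were multi-cell spheroids of tumour lines plus HUVEC and MSC stromal cells.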
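Also: spheroids exposed to agents for one week before readout.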
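For viability, T/C in this document: percent viability relative to DMSO vehicle control wells as 100%.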

IC50 (second compound 0.00316 µM): < 31.6 nM
IC50 (second compound 0.01 µM): < 31.6 nM
IC50 (second compound 0.0316 µM): < 31.6 nM
IC50 (second compound 0.1 µM): < 31.6 nM
IC50 (second compound 0.316 µM): < 31.6 nM
IC50 (second compound 1 µM): < 31.6 nM
SMILES: CC(=O)OC12COC1CC(O)C1(C)C(=O)C(O)C3=C(C)C(OC(=O)C(O)C(NC(=O)OC(C)(C)C)c4ccccc4)CC(O)(C(OC(=O)c4ccccc4)C21)C3(C)C (centres undefined) + C=CC(=O)N1CCN(c2nc(OCC3CCCN3C)nc3c(F)c(-c4nc(N)cc(C)c4C(F)(F)F)c(Cl)cc23)C(C)C1
viability, T/C (second compound 0.00316 µM, first compound 0.0316 µM): 7.49%
viability, T/C (second compound 0.00316 µM, first compound 0.1 µM): 11.8%
viability, T/C (second compound 0.00316 µM, first compound 0.316 µM): 14.4%
viability, T/C (second compound 0.00316 µM, first compound 1 µM): 20.6%
viability, T/C (second compound 0.00316 µM, first compound 3.16 µM): 30.4%
viability, T/C (second compound 0.00316 µM, first compound 10 µM): 48.1%
viability, T/C (second compound 0.01 µM, first compound 0.0316 µM): 7.11%
viability, T/C (second compound 0.01 µM, first compound 0.1 µM): 11.6%
viability, T/C (second compound 0.01 µM, first compound 0.316 µM): 14.8%
viability, T/C (second compound 0.01 µM, first compound 1 µM): 19.2%
viability, T/C (second compound 0.01 µM, first compound 3.16 µM): 31.9%
viability, T/C (second compound 0.01 µM, first compound 10 µM): 60.7%
viability, T/C (second compound 0.0316 µM, first compound 0.0316 µM): 7.67%
viability, T/C (second compound 0.0316 µM, first compound 0.1 µM): 13.9%
viability, T/C (second compound 0.0316 µM, first compound 0.316 µM): 10.9%
viability, T/C (second compound 0.0316 µM, first compound 1 µM): 18.2%
viability, T/C (second compound 0.0316 µM, first compound 3.16 µM): 33.2%
viability, T/C (second compound 0.0316 µM, first compound 10 µM): 56.3%
viability, T/C (second compound 0.1 µM, first compound 0.0316 µM): 6.48%
viability, T/C (second compound 0.1 µM, first compound 0.1 µM): 12.7%
viability, T/C (second compound 0.1 µM, first compound 0.316 µM): 15.2%
viability, T/C (second compound 0.1 µM, first compound 1 µM): 21.9%
viability, T/C (second compound 0.1 µM, first compound 3.16 µM): 30.4%
viability, T/C (second compound 0.1 µM, first compound 10 µM): 57.9%
viability, T/C (second compound 0.316 µM, first compound 0.0316 µM): 7.29%
viability, T/C (second compound 0.316 µM, first compound 0.1 µM): 12%
viability, T/C (second compound 0.316 µM, first compound 0.316 µM): 12.1%
viability, T/C (second compound 0.316 µM, first compound 1 µM): 15.3%
viability, T/C (second compound 0.316 µM, first compound 3.16 µM): 30.3%
viability, T/C (second compound 0.316 µM, first compound 10 µM): 56.1%
viability, T/C (second compound 1 µM, first compound 0.0316 µM): 8.02%
viability, T/C (second compound 1 µM, first compound 0.1 µM): 12.3%
viability, T/C (second compound 1 µM, first compound 0.316 µM): 12.5%
viability, T/C (second compound 1 µM, first compound 1 µM): 19%
viability, T/C (second compound 1 µM, first compound 3.16 µM): 35.8%
viability, T/C (second compound 1 µM, first compound 10 µM): 49.2%

IC50 (second compound 0.00316 µM): 10.2 nM
IC50 (second compound 0.01 µM): 12.4 nM
IC50 (second compound 0.0316 µM): 6.79 nM
IC50 (second compound 0.1 µM): 13.1 nM
IC50 (second compound 0.316 µM): 12.2 nM
IC50 (second compound 1 µM): 13.8 nM
SMILES: CC1(C)CCC(Nc2ncc(C(F)(F)F)c(-c3c[nH]c4c(P(C)(C)=O)c(C#N)ccc34)n2)CN1 (centres undefined) + C=CC(=O)N1CCN(c2nc(OCC3CCCN3C)nc3c(F)c(-c4nc(N)cc(C)c4C(F)(F)F)c(Cl)cc23)C(C)C1
viability, T/C (second compound 0.00316 µM, first compound 0.000949 µM): 103%
viability, T/C (second compound 0.00316 µM, first compound 0.003 µM): 113%
viability, T/C (second compound 0.00316 µM, first compound 0.00949 µM): 52.6%
viability, T/C (second compound 0.00316 µM, first compound 0.03 µM): 14%
viability, T/C (second compound 0.00316 µM, first compound 0.0949 µM): 9.67%
viability, T/C (second compound 0.00316 µM, first compound 0.3 µM): 8.68%
viability, T/C (second compound 0.01 µM, first compound 0.000949 µM): 102%
viability, T/C (second compound 0.01 µM, first compound 0.003 µM): 124%
viability, T/C (second compound 0.01 µM, first compound 0.00949 µM): 61.4%
viability, T/C (second compound 0.01 µM, first compound 0.03 µM): 16.4%
viability, T/C (second compound 0.01 µM, first compound 0.0949 µM): 8.51%
viability, T/C (second compound 0.01 µM, first compound 0.3 µM): 9.49%
viability, T/C (second compound 0.0316 µM, first compound 0.000949 µM): 97.4%
viability, T/C (second compound 0.0316 µM, first compound 0.003 µM): 99.6%
viability, T/C (second compound 0.0316 µM, first compound 0.00949 µM): 30.1%
viability, T/C (second compound 0.0316 µM, first compound 0.03 µM): 15.9%
viability, T/C (second compound 0.0316 µM, first compound 0.0949 µM): 10.5%
viability, T/C (second compound 0.0316 µM, first compound 0.3 µM): 9.47%
viability, T/C (second compound 0.1 µM, first compound 0.000949 µM): 118%
viability, T/C (second compound 0.1 µM, first compound 0.003 µM): 117%
viability, T/C (second compound 0.1 µM, first compound 0.00949 µM): 64%
viability, T/C (second compound 0.1 µM, first compound 0.03 µM): 13.9%
viability, T/C (second compound 0.1 µM, first compound 0.0949 µM): 9.91%
viability, T/C (second compound 0.1 µM, first compound 0.3 µM): 8.45%
viability, T/C (second compound 0.316 µM, first compound 0.000949 µM): 103%
viability, T/C (second compound 0.316 µM, first compound 0.003 µM): 108%
viability, T/C (second compound 0.316 µM, first compound 0.00949 µM): 59.7%
viability, T/C (second compound 0.316 µM, first compound 0.03 µM): 15.8%
viability, T/C (second compound 0.316 µM, first compound 0.0949 µM): 8.13%
viability, T/C (second compound 0.316 µM, first compound 0.3 µM): 8.27%
viability, T/C (second compound 1 µM, first compound 0.000949 µM): 113%
viability, T/C (second compound 1 µM, first compound 0.003 µM): 118%
viability, T/C (second compound 1 µM, first compound 0.00949 µM): 67.2%
viability, T/C (second compound 1 µM, first compound 0.03 µM): 15.6%
viability, T/C (second compound 1 µM, first compound 0.0949 µM): 9.94%
viability, T/C (second compound 1 µM, first compound 0.3 µM): 7.89%
